# Measurements reported in ChEMBL document CHEMBL3425470, “Discovery of imidazopyridine derivatives as highly potent respiratory syncytial virus fusion inhibitors” (ACS Med Chem Lett, 2015).
# Experiments:
# [1] = Antiviral activity against Respiratory syncytial virus A infected in human Hep2 cells assessed as reduction of virus-induced cytopathic effect after 6 days by CCK-8 assay; type: functional, cell-based, Respiratory syncytial virus type A; conditions: HEp-2, 144 h
# [2] = Cytotoxicity against human Hep2 cells assessed as cell viability after 6 days by CCK-8 assay
# [3] = Clearance in mouse liver microsomes at 1 uM
# in vitro = conditions: PAMPA
# Description: Permeability of the compound at 150 uM by PAMPA
# [4] = Solubility of the compound in phosphate buffer at pH 6.5 after overnight incubation by LYSA method
# [5] = Clearance in human liver microsomes at 1 uM
# Cytochrome P450 3A4 = Cytochrome P450 3A4 (Homo sapiens, UniProt P08684); assay: Inhibition of CYP3A4 in human liver microsomes by LC-MS/MS analysis
# Cytochrome P450 2D6 = Cytochrome P450 2D6 (Homo sapiens, UniProt P10635); assay: Inhibition of CYP2D6 in human liver microsomes by LC-MS/MS analysis
# Cytochrome P450 2C9 = Cytochrome P450 2C9 (Homo sapiens, UniProt P11712); assay: Inhibition of CYP2C9 in human liver microsomes by LC-MS/MS analysis
# Cytochrome P450 2C9, sequence (P11712 whole entry): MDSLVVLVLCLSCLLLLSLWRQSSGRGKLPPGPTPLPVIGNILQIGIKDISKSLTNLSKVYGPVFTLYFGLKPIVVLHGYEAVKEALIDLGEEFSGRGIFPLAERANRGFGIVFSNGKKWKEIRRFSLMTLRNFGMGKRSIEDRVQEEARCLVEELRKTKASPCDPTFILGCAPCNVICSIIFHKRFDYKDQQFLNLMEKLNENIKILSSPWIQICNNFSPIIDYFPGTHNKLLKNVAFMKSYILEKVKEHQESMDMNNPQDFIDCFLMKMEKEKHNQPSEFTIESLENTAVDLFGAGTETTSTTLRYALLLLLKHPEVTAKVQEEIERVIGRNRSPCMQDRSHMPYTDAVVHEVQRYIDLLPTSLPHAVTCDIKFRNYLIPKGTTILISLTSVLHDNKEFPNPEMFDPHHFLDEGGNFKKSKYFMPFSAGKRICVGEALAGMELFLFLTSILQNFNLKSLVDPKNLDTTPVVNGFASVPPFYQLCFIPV
# Cytochrome P450 2D6, sequence (P10635 whole entry): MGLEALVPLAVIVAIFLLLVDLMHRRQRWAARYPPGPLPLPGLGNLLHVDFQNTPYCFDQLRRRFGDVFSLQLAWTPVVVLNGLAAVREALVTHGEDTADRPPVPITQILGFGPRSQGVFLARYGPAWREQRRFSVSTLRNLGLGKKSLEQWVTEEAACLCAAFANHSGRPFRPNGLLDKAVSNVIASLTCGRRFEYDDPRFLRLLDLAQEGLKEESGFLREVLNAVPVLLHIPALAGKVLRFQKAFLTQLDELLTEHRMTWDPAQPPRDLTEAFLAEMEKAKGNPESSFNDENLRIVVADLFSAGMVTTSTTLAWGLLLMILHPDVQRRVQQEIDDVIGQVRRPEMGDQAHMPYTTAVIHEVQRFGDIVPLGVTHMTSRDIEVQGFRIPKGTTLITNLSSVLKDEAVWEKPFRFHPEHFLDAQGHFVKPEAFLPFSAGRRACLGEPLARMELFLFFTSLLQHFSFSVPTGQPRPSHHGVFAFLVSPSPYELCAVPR
# Cytochrome P450 3A4, sequence (P08684 whole entry): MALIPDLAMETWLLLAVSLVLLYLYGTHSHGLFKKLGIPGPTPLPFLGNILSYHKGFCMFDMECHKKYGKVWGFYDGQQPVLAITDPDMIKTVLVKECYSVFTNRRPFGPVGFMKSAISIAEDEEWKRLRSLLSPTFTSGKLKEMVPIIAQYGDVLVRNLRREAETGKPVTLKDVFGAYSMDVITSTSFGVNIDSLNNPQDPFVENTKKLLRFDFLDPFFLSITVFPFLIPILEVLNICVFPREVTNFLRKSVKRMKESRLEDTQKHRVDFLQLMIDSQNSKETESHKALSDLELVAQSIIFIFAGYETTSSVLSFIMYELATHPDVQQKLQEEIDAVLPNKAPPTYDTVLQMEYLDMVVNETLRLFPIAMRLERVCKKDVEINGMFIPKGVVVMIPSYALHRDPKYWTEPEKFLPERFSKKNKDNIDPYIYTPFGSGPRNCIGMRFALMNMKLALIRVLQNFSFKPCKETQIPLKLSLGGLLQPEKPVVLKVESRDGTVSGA
Structure (SMILES),EC50 [1] [nM],CC50 at 144 h ([2]; Hep2 cells) [nM],also measured
O=c1n(Cc2nc3ccccc3n2CCCCO)c2cnccc2n1C1CC1,28,,
Cc1ccc2nc(Cn3c(=O)n(C4CC4)c4ccncc43)c(CCCCO)n2c1,217,> 100000,
O=c1n(Cc2nc3ccc(F)cn3c2CCCCO)c2cnccc2n1C1CC1,96,> 100000,
O=c1n(Cc2nc3ccc(Cl)cn3c2CCCCO)c2cnccc2n1C1CC1,422,> 100000,
O=c1n(Cc2nc3ccc(C(F)(F)F)cn3c2CCCCO)c2cnccc2n1C1CC1,2890,> 100000,
Cc1ccn2c(CCCCO)c(Cn3c(=O)n(C4CC4)c4ccncc43)nc2c1,6,> 100000,
CCc1ccn2c(CCCCO)c(Cn3c(=O)n(C4CC4)c4ccncc43)nc2c1,7,> 100000,
O=c1n(Cc2nc3cc(F)ccn3c2CCCCO)c2cnccc2n1C1CC1,23,> 100000,
O=c1n(Cc2nc3ccccn3c2CCCCO)c2cnccc2n1C1CC1,17,> 100000,
O=c1n(Cc2nc3cc(C(F)(F)F)ccn3c2CCCCO)c2cnccc2n1C1CC1,217,> 100000,
O=c1n(Cc2nc3cc(Cl)ccn3c2CCCCO)c2cnccc2n1C1CC1,7,> 100000,CLhep predicted at 1 µM [3]: 80 mL/min/kg; Papp at 150 µM (in vitro): 3.1 ×10⁻⁶ cm/s; solubility [4]: 20 µg/mL; CLhep predicted at 1 µM [5]: 11.5 mL/min/kg
O=c1n(Cc2cn3ccc(Cl)cc3n2)c2cnccc2n1C1CC1,3060,22300,
N#Cc1c(Cn2c(=O)n(C3CC3)c3ccncc32)nc2cc(Cl)ccn12,86,22500,
O=c1n(Cc2nc3cc(Cl)ccn3c2CO)c2cnccc2n1C1CC1,1930,> 100000,
O=C(O)c1c(Cn2c(=O)n(C3CC3)c3ccncc32)nc2cc(Cl)ccn12,25500,> 100000,
O=C(NCCO)c1c(Cn2c(=O)n(C3CC3)c3ccncc32)nc2cc(Cl)ccn12,2230,> 100000,
CS(=O)(=O)CCNC(=O)c1c(Cn2c(=O)n(C3CC3)c3ccncc32)nc2cc(Cl)ccn12,82,> 100000,
O=C(O)/C=C/c1c(Cn2c(=O)n(C3CC3)c3ccncc32)nc2cc(Cl)ccn12,207,> 100000,
O=C(O)CCc1c(Cn2c(=O)n(C3CC3)c3ccncc32)nc2cc(Cl)ccn12,53,,CLhep predicted at 1 µM [3]: 9.1 mL/min/kg; Papp at 150 µM (in vitro): 0.3 ×10⁻⁶ cm/s; IC50 (Cytochrome P450 3A4): > 50000 nM; CC50 at 144 h ([2]; hep-2): > 100000 nM; solubility [4]: 541 µg/mL; IC50 (Cytochrome P450 2D6): > 50000 nM; IC50 (Cytochrome P450 2C9): > 50000 nM
NC(=O)CCc1c(Cn2c(=O)n(C3CC3)c3ccncc32)nc2cc(Cl)ccn12,5,> 100000,CLhep predicted at 1 µM [3]: 59 mL/min/kg; Papp at 150 µM (in vitro): 2.5 ×10⁻⁶ cm/s; solubility [4]: 87 µg/mL; CLhep predicted at 1 µM [5]: 13.5 mL/min/kg
O=C(CCc1c(Cn2c(=O)n(C3CC3)c3ccncc32)nc2cc(Cl)ccn12)NCCO,10,> 100000,CLhep predicted at 1 µM [3]: 47 mL/min/kg; Papp at 150 µM (in vitro): 0.96 ×10⁻⁶ cm/s; solubility [4]: 107 µg/mL; CLhep predicted at 1 µM [5]: 2.9 mL/min/kg
CS(=O)(=O)NC(=O)CCc1c(Cn2c(=O)n(C3CC3)c3ccncc32)nc2cc(Cl)ccn12,46,> 100000,
CS(=O)(=O)CCc1c(Cn2c(=O)n(C3CC3)c3ccncc32)nc2cc(Cl)ccn12,6,> 100000,CLhep predicted at 1 µM [3]: 35 mL/min/kg; Papp at 150 µM (in vitro): 3.6 ×10⁻⁶ cm/s; IC50 (Cytochrome P450 3A4): > 50000 nM; solubility [4]: 59 µg/mL; IC50 (Cytochrome P450 2D6): > 50000 nM; IC50 (Cytochrome P450 2C9): > 50000 nM; CLhep predicted at 1 µM [5]: 2.5 mL/min/kg
CCS(=O)(=O)CCc1c(Cn2c(=O)n(C3CC3)c3ccncc32)nc2cc(Cl)ccn12,3,,CLhep predicted at 1 µM [3]: 62 mL/min/kg; Papp at 150 µM (in vitro): 2.6 ×10⁻⁶ cm/s; IC50 (Cytochrome P450 3A4): > 50000 nM; CC50 at 144 h ([2]; hep-2): > 100000 nM; solubility [4]: 46 µg/mL; IC50 (Cytochrome P450 2D6): > 50000 nM; IC50 (Cytochrome P450 2C9): > 50000 nM; CLhep predicted at 1 µM [5]: 4.6 mL/min/kg
CCCCNc1c(Cn2c(=O)n(C3CC3)c3ccncc32)nc2cc(Cl)ccn12,41,> 100000,
O=c1n(Cc2nc3cc(Cl)ccn3c2NC2CCCCC2)c2cnccc2n1C1CC1,72,> 100000,
O=c1n(Cc2nc3cc(Cl)ccn3c2NCCN2CCOCC2)c2cnccc2n1C1CC1,83,> 100000,
O=c1n(Cc2nc3cc(Cl)ccn3c2CNCCO)c2cnccc2n1C1CC1,683,> 100000,
CS(=O)(=O)c1ccc(-c2c(Cn3c(=O)n(C4CC4)c4ccncc43)nc3cc(Cl)ccn23)cc1,89,> 100000,
